Data on 6 compounds can be found in patent US4918174A, “Tiacumicin compounds” (Abbott Laboratories, priority 1986, dated 1990).

Each structure is given as a SMILES string. ≈ marks a conversion by molar mass, not a printed value. Like-named read-outs stand apart in the source and are kept apart here.

Data set [1] concerns Micrococcus luteus 4698. The data set can be described thus: Minimal Inhibitory Concentrations against common test organisms. The format is cell-based.
The subject of data set [2] is Micrococcus luteus 9341. Described as above. It is filed as cell-based.
Data set [3] concerns Staphylococcus epidermidis 3519. Described as above. It is filed as cell-based.
Data set [4] relates to Staphylococcus aureus ATCC 6538. The data set is described as above. It is filed as cell-based.
The nature of data set [5]: solubility. The format is physicochemical.
Data set [6] concerns Streptococcus pyogenes 930. The data set can be described thus: Minimal Inhibitory Concentrations against common test organisms. It is filed as cell-based.
Data set [7] relates to Propionibacterium acnes 132. The data set is described as above. The format is cell-based. To be noted: Cutibacterium acnes.
For data set [8], the system named is Gram-positive bacteria. The data set can be described thus: antibiotic activity against Gram-positive bacteria in vitro. It is filed as cell-based. To be noted: including strains resistant to currently used therapeutic antibiotics.
Data set [9] has as its system Candida albicans ATCC 10231. In words: Minimal Inhibitory Concentrations against common test organisms. The format is cell-based. The following applies: ATCC10231.
The test system of data set [10] is Streptococcus faecium ATCC 8043. The data set is described as above. The format is cell-based. The following applies: Enterococcus faecium, ATCC8043.
Data set [11] deals with Bacteroides fragilis 784. The description is as above. The format is cell-based.
The subject of data set [12] is Esherichia coli Juhl. The data set is described as above. It is filed as cell-based.
For data set [13], the system named is Pseudomonas aeruginosa A-5007. The description is as above. It is filed as cell-based. To be noted: A5007.
Where [14] appears, read: ATCC6538, Staphylococcus aureus ATCC 6538, read-out: Minimal Inhibitory Concentrations.

Consider `CCC1CC=C(C)C=C(C)C(OC2OC(C)(C)C(OC(C)=O)C(O)C2O)C(CC)C=C(C)C(O)CC=CC=C(C)C(=O)O1` (centres unmarked) [Tiacumicin A], for which the MIC in [1] stood at 0.39 µg/mL (≈ 0.645 µM). Further, in [2], the MIC came to 0.1 µg/mL (≈ 0.165 µM). For the same compound, the MIC in data set [3] is 100 µg/mL (≈ 165 µM). Further, the MIC in [4] (setting [14]) amounted to 100 µg/mL (≈ 165 µM). The solubility in acetone result in data set [5] (acetone) is “sparingly soluble”. Further, in [5], the solubility in acetonitrile entry is “sparingly soluble”, the solubility in benzene entry is “readily soluble”, the solubility in chloroform entry is recorded as “readily soluble” and the solubility in methanol entry is “readily soluble”. Also, the solubility in water entry in data set [5] is given as “insoluble”. This compound yielded an MIC in data set [6] of 100 µg/mL (≈ 165 µM).
On to `CCc1c(Cl)c(O)c(Cl)c(O)c1C(=O)OC1C(C)OC(OCC2=CC=CCC(O)C(C)=CC(CC)C(OC3OC(C)(C)C(OC(=O)C(C)C)C(O)C3O)C(C)=CC(C)=CCC(C(C)O)OC2=O)C(OC)C1O` (centres unmarked) [Tiacumicin B], for which the MIC in data set [7] was 6.25 µg/mL (≈ 5.91 µM); in [9], over 100 µg/mL; in [10], 12.5 µg/mL (≈ 11.8 µM); in [11] it was over 100 µg/mL; in data set [2] it was 0.1 µg/mL (≈ 0.0945 µM); in data set [3], 12.5 µg/mL (≈ 11.8 µM). In addition, the MIC was 12.5 µg/mL (≈ 11.8 µM) in data set [4] (Staphylococcus aureus, ATCC6538, read-out: Minimal Inhibitory Concentrations); over 100 µg/mL in [12]; 12.5 µg/mL (≈ 11.8 µM) in [6]; over 100 µg/mL in data set [13]. Besides, in data set [8], the “antibiotic activity against a number of Gram-positive bacteria” value was “possessed antibiotic activity”. Besides, the solubility in acetonitrile entry in [5] is recorded as “readily soluble”. In addition, the solubility in benzene result in data set [5] was “sparingly soluble”. In addition, the solubility in chloroform entry in [5] is reported as “sparingly soluble”. In [5], the solubility in ether result is on record as “sparingly soluble”. Further, the solubility in hexane result in data set [5] is “insoluble”. Besides, the solubility in methanol entry in data set [5] was “readily soluble”. Further, the solubility in water result in data set [5] was “insoluble”.
On to `CCc1c(Cl)c(O)c(Cl)c(O)c1C(=O)OC1C(C)OC(OCC2=CC=CCC(O)C(C)=CC(CC)C(OC3OC(C)(C)C(O)C(O)C3OC(=O)C(C)C)C(C)=CC(C)=CCC(C(C)O)OC2=O)C(OC)C1O` (centres unmarked) [Tiacumicin C], for which the “antibiotic activity against a number of Gram-positive bacteria” value in [8] is recorded as “possessed antibiotic activity”. Further, the MIC in data set [9] was over 100 µg/mL; in data set [10], 100 µg/mL (≈ 94.5 µM); in [2], at most 0.39 µg/mL; in data set [3], 25 µg/mL (≈ 23.6 µM); in [4] (setting [14]) it was 50 µg/mL (≈ 47.3 µM); in [12], over 100 µg/mL. Besides, the MIC in [6] was 25 µg/mL (≈ 23.6 µM); in data set [13] it was over 100 µg/mL. Further, the solubility in acetonitrile result in data set [5] is listed as “readily soluble”. The solubility in benzene entry in data set [5] is reported as “sparingly soluble”. Further, the solubility in chloroform result in data set [5] is “sparingly soluble”. Also, the solubility in ether entry in data set [5] was “sparingly soluble”. Also, the solubility in hexane entry in [5] was “insoluble”. Also, the solubility in methanol entry in data set [5] is listed as “readily soluble”. The solubility in water result in data set [5] is “insoluble”.
With `CCc1c(Cl)c(O)c(Cl)c(O)c1C(=O)OC1C(O)C(C)OC(OCC2=CC=CCC(O)C(C)=CC(CC)C(OC3OC(C)(C)C(O)C(O)C3OC(=O)C(C)C)C(C)=CC(C)=CCC(C(C)O)OC2=O)C1OC` (centres unmarked) [Tiacumicin D], the MIC in [10] is over 25 µg/mL; in data set [2] it was 0.2 µg/mL (≈ 0.189 µM); in data set [3] it was over 25 µg/mL; in data set [4] (setting [14]) it was over 25 µg/mL; in [12], over 25 µg/mL; in data set [6] it was over 25 µg/mL. The same compound yielded an MIC in data set [13] of over 25 µg/mL. For the same compound, the solubility in acetonitrile entry in data set [5] was “readily soluble”. Further, the solubility in benzene result in data set [5] is given as “sparingly soluble”. Besides, the solubility in chloroform result in [5] is “sparingly soluble”. Besides, the solubility in ether result in [5] is listed as “sparingly soluble”. The solubility in hexane result in [5] is “insoluble”. Also, in [5], the solubility in methanol entry is given as “readily soluble”. In data set [5], the solubility in water result is recorded as “insoluble”.
In [10], `CCC(=O)OC1C(OC2C(C)=CC(C)=CCC(C(C)O)OC(=O)C(COC3OC(C)C(OC(=O)c4c(O)c(Cl)c(O)c(Cl)c4CC)C(O)C3OC)=CC=CCC(O)C(C)=CC2CC)OC(C)(C)C(O)C1O` (centres unmarked) [Tiacumicin E] showed an MIC of 12.5 µg/mL (≈ 12 µM). Moreover, the MIC in data set [3] is 12.5 µg/mL (≈ 12 µM). Moreover, in data set [4] (setting [14]), the MIC worked out at 2.5 µg/mL (≈ 2.39 µM). Moreover, in [5], the solubility in acetonitrile entry was “readily soluble”, the solubility in benzene result was “sparingly soluble”, the solubility in chloroform entry is on record as “sparingly soluble” and the solubility in ether entry is on record as “sparingly soluble”. Also, in data set [5], the solubility in hexane entry is reported as “insoluble”, the solubility in methanol result is on record as “readily soluble” and the solubility in water entry is recorded as “insoluble”. In addition, the MIC in data set [12] was over 100 µg/mL. In addition, the MIC in [6] worked out at 50 µg/mL (≈ 47.9 µM). This compound also registered an MIC in data set [13] of over 100 µg/mL.
In the case of `CCc1c(Cl)c(O)c(Cl)c(O)c1C(=O)OC1C(C)OC(OCC2=CC=CCC(O)C(C)=CC(CC)C(OC3OC(C)(C)C(O)C(OC(=O)C(C)C)C3O)C(C)=CC(C)=CCC(C(C)O)OC2=O)C(OC)C1O` (centres unmarked) [Tiacumicin F], the MIC in [10] was determined as 6.2 µg/mL (≈ 5.86 µM). Also, the MIC in [2] is 6.2 µg/mL (≈ 5.86 µM). The same compound gave an MIC in data set [3] of 12.5 µg/mL (≈ 11.8 µM). For the same compound, the MIC in data set [4] (setting [14]) was 12.5 µg/mL (≈ 11.8 µM). In data set [5], the solubility in acetonitrile entry is on record as “readily soluble”, the solubility in benzene result is given as “sparingly soluble”, the solubility in chloroform entry is recorded as “sparingly soluble” and the solubility in ether entry is recorded as “sparingly soluble”. For the same compound, in data set [5], the solubility in hexane result is recorded as “insoluble”, the solubility in methanol entry is “readily soluble” and the solubility in water entry was “insoluble”. The MIC in data set [12] is over 100 µg/mL. In [6], this compound showed an MIC of 12.5 µg/mL (≈ 11.8 µM). The compound also returned an MIC in [13] of over 100 µg/mL.
